# Molecular target: T1, Human complement C1s enzyme (Homo sapiens, UniProt P09871)
# T1 sequence (P09871 438-688 limits assumed): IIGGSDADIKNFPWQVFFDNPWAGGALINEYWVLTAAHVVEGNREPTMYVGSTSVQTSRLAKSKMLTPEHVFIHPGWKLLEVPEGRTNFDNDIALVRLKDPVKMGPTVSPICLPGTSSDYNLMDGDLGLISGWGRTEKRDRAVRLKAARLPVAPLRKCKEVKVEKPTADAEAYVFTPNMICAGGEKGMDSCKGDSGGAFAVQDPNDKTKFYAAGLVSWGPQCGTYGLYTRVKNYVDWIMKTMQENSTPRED
# T1 sequence (P09871 16-437 partner limits assumed): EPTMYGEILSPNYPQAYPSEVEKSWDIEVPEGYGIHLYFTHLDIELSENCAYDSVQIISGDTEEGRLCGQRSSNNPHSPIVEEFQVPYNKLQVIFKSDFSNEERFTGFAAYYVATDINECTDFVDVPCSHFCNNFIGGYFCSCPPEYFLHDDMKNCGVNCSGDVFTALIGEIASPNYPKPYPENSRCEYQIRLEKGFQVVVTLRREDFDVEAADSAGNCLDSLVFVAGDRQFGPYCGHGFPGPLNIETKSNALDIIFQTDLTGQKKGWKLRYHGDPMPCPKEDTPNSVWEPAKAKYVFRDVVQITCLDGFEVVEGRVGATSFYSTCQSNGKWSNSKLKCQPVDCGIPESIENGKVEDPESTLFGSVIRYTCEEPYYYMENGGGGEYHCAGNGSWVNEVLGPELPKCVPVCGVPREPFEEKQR
# Assay: Human C1s enzyme assay
# Type: biochemical
# Details: human complement C1s enzyme 1.16 nM, substrate Z-L-Lys-SBzl 100 μM, 5 min preincubation; read-out: IC50 (Stars), C1s Inhibiting Activity
# How it was run: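 Serum-purified human C1s (1.16 nM final) preincubated 5 min at room temperature with compound in 50 mM Tris, 1 M NaCl, pH 7.5. Z-L-Lys-SBzl and DTNB added at 100 μM each; A405 followed every 30 s for 30 min, and IC50 obtained by nonlinear regression of reaction rates.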
row,IC50 [nM],SMILES
1,> 1000,"O=C(NCC(=O)N1C[C@H](OC(F)F)C[C@H]1C(=O)NCc1ccc2[nH]ncc2n1)c1ccc2c(c1)Oc1ccccc1S2 [Compound 227, (2S,4R)-N-((1H-pyrazolo[4,3-b]pyridin-5-yl)methyl)-4-(difluoromethoxy)-1-((phenoxathiine-3-carbonyl)glycyl)pyrrolidine-2-carboxamide]"
2,< 100,"O=C(NCC(=O)N1C[C@H](OC(F)F)C[C@H]1C(=O)NCc1ccc2c(c1)CNC2)c1ccc2c(c1)Oc1ccccc1S2 [Compound 228, (2S,4R)-4-(difluoromethoxy)-N-(isoindolin-5-ylmethyl)-1-((phenoxathiine-3-carbonyl)glycyl)pyrrolidine-2-carboxamide]"
3,< 100,"Cc1ccc(Oc2ccnc(C(=O)NCC(=O)N3C[C@H](OC(F)F)C[C@H]3C(=O)NCc3cc4cnccc4[nH]3)c2)c(F)c1 [Compound 323, N-(2-((2S,4R)-2-(((1H-pyrrolo[3,2-c]pyridin-2-yl)methyl)carbamoyl)-4-(difluoromethoxy)pyrrolidin-1-yl)-2-oxoethyl)-4-(2-fluoro-4-methylphenoxy)picolinamide]"
4,< 100,"C[C@@H](NC(=O)[C@@H]1C[C@]2(C)C[C@@H]2N1C(=O)CNC(=O)c1cccc(Oc2ccccc2)c1)c1cc2cnccc2[nH]1 [Compound 171, (1S,3S,5S)-N-((R)-1-(1H-pyrrolo[3,2-c]pyridin-2-yl)ethyl)-5-methyl-2-((3-phenoxybenzoyl)glycyl)-2-azabicyclo[3.1.0]hexane-3-carboxamide]"
5,100 to 1000,"O=C(NCC(=O)N1CC2(C[C@H]1C(=O)NCc1cc3cnccc3s1)OCCO2)c1cccc(Oc2ccc(F)cc2)c1 [Compound 255, (S)-7-((3-(4-fluorophenoxy)benzoyl)glycyl)-N-(thieno[3,2-c]pyridin-2-ylmethyl)-1,4-dioxa-7-azaspiro[4.4]nonane-8-carboxamide]"
6,< 100,"O=C(NCC(=O)N1C[C@H](OC(F)F)C[C@H]1C(=O)NCc1cc2cnccc2[nH]1)c1ccc2c(c1)-c1ccccc1C2(F)F [Compound 8, (2S,4R)-N-((1H-pyrrolo[3,2-c]pyridin-2-yl)methyl)-1-((9,9-difluoro-9H-fluorene-3-carbonyl)glycyl)-4-(difluoromethoxy)pyrrolidine-2-carboxamide]"
7,< 100,"O=C(NCC(=O)N1C[C@H](OC(F)F)C[C@H]1C(=O)NCc1cc2cnccc2s1)c1cccc(Oc2ccccc2)c1 [Compound 235, (2S,4R)-4-(difluoromethoxy)-1-((3-phenoxybenzoyl)glycyl)-N-(thieno[3,2-c]pyridin-2-ylmethyl)pyrrolidine-2-carboxamide]"
8,< 100,"Cc1ccc(Oc2ccc(C(=O)NCC(=O)N3C[C@H](OC(F)F)C[C@H]3C(=O)NCc3cc4cnccc4[nH]3)cc2)c(F)c1 [Compound 316, (2S,4R)-N-((1H-pyrrolo[3,2-c]pyridin-2-yl)methyl)-4-(difluoromethoxy)-1-((4-(2-fluoro-4-methylphenoxy)benzoyl)glycyl) pyrrolidine-2-carboxamide]"
9,< 100,"Cc1ccc(Oc2cc(C(=O)NCC(=O)N3C[C@H](OC(F)F)C[C@H]3C(=O)NCc3cc4cnccc4[nH]3)ccc2C)cc1 [Compound 244, (2S,4R)-N-((1H-pyrrolo[3,2-c]pyridin-2-yl)methyl)-4-(difluoromethoxy)-1-((4-methyl-3-(p-tolyloxy)benzoyl)glycyl) pyrrolidine-2-carboxamide]"

# Second part, the compound before the results:
row,SMILES,IC50 [nM]
1,"COC[C@@]1(F)C[C@@H](C(=O)NCc2cc3cnccc3[nH]2)N(C(=O)CNC(=O)c2ccc3c(c2)-c2ccccc2C3(F)F)C1 [Compound 5, (2S,4R)-N-((1H-pyrrolo[3,2-c]pyridin-2-yl)methyl)-1-((9,9-difluoro-9H-fluorene-3-carbonyl)glycyl)-4-fluoro-4-(methoxymethyl)pyrrolidine-2-carboxamide]",< 100
2,"O=C(NCC(=O)N1CC2(C[C@H]1C(=O)NCc1cc3nccnc3[nH]1)OCCO2)c1ccc2c(c1)Oc1ccccc1S2 [Compound 48, (S)-N-((5H-pyrrolo[2,3-b]pyrazin-6-yl)methyl)-7-((phenoxathiine-3-carbonyl)glycyl)-1,4-dioxa-7-azaspiro[4.4]nonane-8-carboxamide]",> 1000
3,"O=C(NCC(=O)N1CC2(C[C@H]1C(=O)NCc1cc3cnccn3c1)OCCO2)c1ccc2c(c1)Oc1ccccc1S2 [Compound 111, 7-{2-[(Phenoxathiine-3-carbonyl)-amino]-acetyl}-1,4-dioxa-7-aza-spiro[4.4]nonane-8-carboxylic acid (pyrrolo[1,2-a]pyrazin-7-ylmethyl)-amide]",< 100
4,"O=C(NCC(=O)N1CC2(C[C@H]1C(=O)NCc1cc3cc(Br)ccc3[nH]1)OCCO2)c1ccc2c(c1)Oc1ccccc1S2 [Compound 55, (S)-N-((5-bromo-1H-indol-2-yl)methyl)-7-((phenoxathiine-3-carbonyl)glycyl)-1,4-dioxa-7-azaspiro[4.4]nonane-8-carboxamide]",> 1000
5,"C[C@@H](NC(=O)[C@@H]1C[C@]2(C)C[C@@H]2N1C(=O)CN1Cc2cc(-c3ccc(F)cc3)ccc2C1=O)c1cc2cnccc2[nH]1 [Compound 116, (1S,3S,5S)-N-((R)-1-(1H-pyrrolo[3,2-c]pyridin-2-yl)ethyl)-2-(2-(5-(4-fluorophenyl)-1-oxoisoindolin-2-yl)acetyl)-5-methyl-2-azabicyclo[3.1.0]hexane-3-carboxamide]",> 1000
6,"O=C(NCC(=O)N1CC[C@@H](O)[C@H]1C(=O)NCc1cc2cnccc2[nH]1)c1ccc2c(c1)Oc1ccccc1S2 [Compound 158, (2S,3R)-N-((1H-pyrrolo[3,2-c]pyridin-2-yl)methyl)-3-hydroxy-1-((phenoxathiine-3-carbonyl)glycyl)pyrrolidine-2-carboxamide]",< 100
7,"C[C@@H](NC(=O)[C@@H]1CC(Cn2ccnc2)CN1C(=O)CNC(=O)c1ccc2c(c1)Oc1ccccc1S2)c1cc2cnccc2[nH]1 (stereo partly drawn) [Compound 184, (2S)-4-((1H-imidazol-1-yl)methyl)-N-((R)-1-(1H-pyrrolo[3,2-c]pyridin-2-yl)ethyl)-1-((phenoxathiine-3-carbonyl)glycyl)pyrrolidine-2-carboxamide]",< 100
8,"CO[C@@H]1C[C@@H](C(=O)N[C@H](C)c2cc3cnccc3[nH]2)N(C(=O)CNC(=O)c2ccc3c(c2)-c2ccccc2C3(F)F)C1 [Compound 71, (2S,4R)-N-((R)-1-(1H-pyrrolo[3,2-c]pyridin-2-yl)ethyl)-1-((9,9-difluoro-9H-fluorene-3-carbonyl)glycyl)-4-methoxypyrrolidine-2-carboxamide]",< 100
9,"COC[C@@]1(F)C[C@@H](C(=O)N[C@H](C)c2cc3cnccc3[nH]2)N(C(=O)CNC(=O)c2ccc3c(c2)-c2ccccc2C3(F)F)C1 [Compound 73, (2S,4R)-N-((R)-1-(1H-pyrrolo[3,2-c]pyridin-2-yl)ethyl)-1-((9,9-difluoro-9H-fluorene-3-carbonyl)glycyl)-4-fluoro-4-(methoxymethyl)pyrrolidine-2-carboxamide]",< 100
10,"C[C@@]12C[C@@H]1N(C(=O)CNC(=O)c1cccc(-c3ccccc3)n1)[C@H](C(=O)NCc1cc3cnccc3[nH]1)C2 [Compound 159, (1S,3S,5S)-N-((1H-pyrrolo[3,2-c]pyridin-2-yl)methyl)-5-methyl-2-((6-phenylpicolinoyl)glycyl)-2-azabicyclo[3.1.0]hexane-3-carboxamide]",> 1000
11,"CC(c1cccc(F)c1)c1ccc(C(=O)NCC(=O)N2CC3(C[C@H]2C(=O)NCc2cc4cnccc4[nH]2)OCCO3)s1 (stereo partly drawn) [Compound 357, (8S)-N-((1H-pyrrolo[3,2-c]pyridin-2-yl)methyl)-7-((5-(1-(3-fluorophenyl)ethyl)thiophene-2-carbonyl)glycyl)-1,4-dioxa-7-azaspiro[4.4]nonane-8-carboxamide]",100 to 1000
12,"Cc1ccc(Oc2cccc(C(=O)NCC(=O)N3N=CC[C@H]3C(=O)NCc3cc4cnccc4[nH]3)c2F)cc1 [Compound 375, (S)-N-((1H-pyrrolo[3,2-c]pyridin-2-yl)methyl)-1-((2-fluoro-3-(p-tolyloxy)benzoyl)glycyl)-4,5-dihydro-1H-pyrazole-5-carboxamide]",< 100
13,"C[C@@H](NC(=O)[C@@H]1C[C@]2(Cc3nccs3)C[C@@H]2N1C(=O)CNC(=O)c1ccc2c(c1)Oc1ccccc1S2)c1cc2cnccc2[nH]1 [Compound 186, (1S,3S,5S)-N-((R)-1-(1H-pyrrolo[3,2-c]pyridin-2-yl)ethyl)-2-((phenoxathiine-3-carbonyl)glycyl)-5-(thiazol-2-ylmethyl)-2-azabicyclo[3.1.0]hexane-3-carboxamide]",< 100
14,"O=C(NCC(=O)N1CC2(C[C@H]1C(=O)NCc1ncc[nH]1)OCCO2)c1ccc(Oc2ccccc2)cc1 [Compound 15, (S)-N-((1H-imidazol-2-yl)methyl)-7-((4-phenoxybenzoyl)glycyl)-1,4-dioxa-7-azaspiro[4.4]nonane-8-carboxamide]",> 1000

# Source: patent US20260062443A1 (ALEXION PHARMACEUTICALS, INC., priority 2022, published 2026)
